Measurements from ChEMBL document CHEMBL1145276, “Synthesis and biological evaluation of 6,7-disubstituted 4-aminopyrido[2,3-d]pyrimidines as adenosine kinase inhibitors” (Bioorg Med Chem Lett, 2005).

How the values were obtained:
Adenosine kinase [1] = molecular target: T1, Adenosine kinase (Homo sapiens, UniProt P55263); test: Inhibitory concentration against Adenosine Kinase (enzyme)
Adenosine kinase [2] = molecular target: T1, Adenosine kinase; test: Inhibitory concentration against Adenosine Kinase (intact cells)

T1 sequence (P55263 whole entry): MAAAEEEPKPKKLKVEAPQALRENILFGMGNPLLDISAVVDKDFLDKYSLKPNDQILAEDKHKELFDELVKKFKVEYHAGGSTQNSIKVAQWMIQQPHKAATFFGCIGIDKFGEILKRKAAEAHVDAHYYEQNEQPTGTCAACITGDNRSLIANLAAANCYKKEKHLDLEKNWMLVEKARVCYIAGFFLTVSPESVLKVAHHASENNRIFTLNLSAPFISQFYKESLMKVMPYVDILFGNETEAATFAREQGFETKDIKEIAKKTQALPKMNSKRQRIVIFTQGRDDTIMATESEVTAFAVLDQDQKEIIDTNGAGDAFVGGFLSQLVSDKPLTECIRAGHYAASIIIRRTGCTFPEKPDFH

SMILES | IC50 (Adenosine kinase [1]) [nM] | IC50 (Adenosine kinase [2]) [nM]
CN(C)c1ccc(-c2nc3ncnc(N)c3cc2-c2ccccc2)cc1 | 350 | 
CN(C)c1ccc(-c2cc3c(N)ncnc3nc2-c2ccc(N(C)C)cc2)cc1 | 183 | 367
CN(C)c1ccc(-c2nc3ncnc(N)c3cc2CCc2ccccc2)cc1 | 433 | 
Cc1ccc(-c2cc3c(N)ncnc3nc2-c2cc3ccccc3o2)cc1 | > 1000 | 
CC(C)Cc1cc2c(N)ncnc2nc1-c1ccc(N(C)C)cc1 | 200 | > 1000
COc1cccc(-c2cc3c(N)ncnc3nc2-c2ccc(N(C)C)cc2)c1 | > 1000 | 
CN(C)c1ccc(-c2nc3ncnc(N)c3cc2CCCc2ccccc2)cc1 | 2230 | 
Cc1ccc(-c2cc3c(N)ncnc3nc2-c2ccc(/C=C/c3ccccn3)cc2)cc1 | 115 | 
CN(C)c1ccc(-c2cc3c(N)ncnc3nc2-c2ccncc2)cc1 | 467 | 4170
COc1ccc(-c2cc3c(N)ncnc3nc2-c2ccc(N(C)C)cc2)cc1 | 92 | 
CN(C)c1ccc(-c2ccc3c(N)ncnc3n2)cc1 | 773 | > 10000
Nc1ncnc2nc(-c3nccs3)c(Cc3cccc(Br)c3)cc12 | 900 | 
Cc1ccc(-c2cc3c(N)ncnc3nc2-c2ccc(-c3cncnc3)cc2)cc1 | 180 | 
CN(C)c1ccc(-c2nc3ncnc(N)c3cc2Cc2ccccc2)cc1 | 114 | 650
CN(C)c1ccc(-c2cnc3c(N)ncnc3n2)cc1 | 440 | 

Molecules with a lower IC50 (Adenosine kinase [1]), results first:

IC50 (Adenosine kinase [1]) [nM] | IC50 (Adenosine kinase [2]) [nM] | SMILES
70 | > 1000 | CN(C)c1ccc(-c2nc3ncnc(N)c3cc2-c2cccc(Br)c2)cc1
47 | > 1000 | Cc1ccc(-c2cc3c(N)ncnc3nc2-c2ccsc2)cc1
45 | 350 | COc1ccc(-c2cc3c(N)ncnc3nc2-c2ccc(N(C)C)cc2)cc1OC
38 | 300 | COc1ccc(-c2cc3c(N)ncnc3nc2-c2cccs2)cc1OC
33 | 225 | COc1ccc(-c2cc3c(N)ncnc3nc2-c2ccc(N(C)C)cc2)cc1Br
30 | 700 | CCCCCc1cc2c(N)ncnc2nc1-c1ccc(N(C)C)cc1
20 | > 1000 | CN(C)c1ccc(-c2nc3ncnc(N)c3cc2-c2ccc(Br)cc2)cc1
11 | 767 | CCCCc1cc2c(N)ncnc2nc1-c1cccs1
9 | 800 | Cc1ccc(-c2cc3c(N)ncnc3nc2-c2cccs2)cc1
8 | 375 | COc1ccc(-c2cc3c(N)ncnc3nc2-c2cccs2)cc1Br
3.8 | 650 | Nc1ncnc2nc(-c3cccs3)c(Cc3cccc(Br)c3)cc12
